Experiments:
NEP enzyme = biological target: T1, NEP enzyme (Homo sapiens, UniProt P08473); assay: NEP enzyme inhibition assay (fluorogenic peptide substrate); assay type: biochemical; settings: values given as lower bounds; * = prodrugs, may not exhibit NEP activity in an in vitro assay; read-out: NEP pIC50 (converted)
T1 construct: purchased R&D Systems, Minneapolis, Minn; 1182-ZN
Summary of the method: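 Recombinant human NEP was run with Mca-BK2 (10 μM) at room temperature in Tris buffer with 1 μM Zn. Compounds (10 μM–20 pM, 12 points) were pre-equilibrated 10 min, then reacted 20 min and acid-stopped. Fluorescence ex 320/em 405 nm, one-site competition fit gives pIC50. Thiol compounds may be pre-treated with 400 μM TCEP.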

human AT1 receptor = biological target: T2, human AT1 receptor (Homo sapiens, UniProt P30556); assay: AT1 radioligand binding assay (displacement of [Eu]AngII); settings: membranes of CHO-K1 cells expressing cloned human AT1 receptor; values given as lower bounds; read-out: AT1 pKi (converted)
T2 construct: expressed in transfected cells; host or cells: CHO-K1
T2 sequence (P30556 1-359): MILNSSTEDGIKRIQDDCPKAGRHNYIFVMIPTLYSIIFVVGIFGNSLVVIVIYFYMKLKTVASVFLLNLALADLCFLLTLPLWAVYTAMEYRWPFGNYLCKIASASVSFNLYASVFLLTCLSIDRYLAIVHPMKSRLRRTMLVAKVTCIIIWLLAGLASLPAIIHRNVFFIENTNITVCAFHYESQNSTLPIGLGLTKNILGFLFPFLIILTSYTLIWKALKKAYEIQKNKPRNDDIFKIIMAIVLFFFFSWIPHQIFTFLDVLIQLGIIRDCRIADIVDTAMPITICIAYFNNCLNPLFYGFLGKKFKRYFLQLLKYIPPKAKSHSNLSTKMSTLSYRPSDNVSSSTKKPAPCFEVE
Summary of the method: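 Membranes from CHO-K1 cells stably expressing cloned human AT1, 0.2 μg protein, in 50 mM Tris/HCl pH 7.5, 5 mM MgCl2, 0.025% BSA. Compounds displaced [Eu]AngII over 120 min in the dark at room temperature or 37° C; filter-bound TRF read. Nonspecific binding with 10 μM angiotensin II; IC50 converted to Ki via Cheng-Prusoff, reported as pKi.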

T1 sequence (P08473 52-750 limits assumed): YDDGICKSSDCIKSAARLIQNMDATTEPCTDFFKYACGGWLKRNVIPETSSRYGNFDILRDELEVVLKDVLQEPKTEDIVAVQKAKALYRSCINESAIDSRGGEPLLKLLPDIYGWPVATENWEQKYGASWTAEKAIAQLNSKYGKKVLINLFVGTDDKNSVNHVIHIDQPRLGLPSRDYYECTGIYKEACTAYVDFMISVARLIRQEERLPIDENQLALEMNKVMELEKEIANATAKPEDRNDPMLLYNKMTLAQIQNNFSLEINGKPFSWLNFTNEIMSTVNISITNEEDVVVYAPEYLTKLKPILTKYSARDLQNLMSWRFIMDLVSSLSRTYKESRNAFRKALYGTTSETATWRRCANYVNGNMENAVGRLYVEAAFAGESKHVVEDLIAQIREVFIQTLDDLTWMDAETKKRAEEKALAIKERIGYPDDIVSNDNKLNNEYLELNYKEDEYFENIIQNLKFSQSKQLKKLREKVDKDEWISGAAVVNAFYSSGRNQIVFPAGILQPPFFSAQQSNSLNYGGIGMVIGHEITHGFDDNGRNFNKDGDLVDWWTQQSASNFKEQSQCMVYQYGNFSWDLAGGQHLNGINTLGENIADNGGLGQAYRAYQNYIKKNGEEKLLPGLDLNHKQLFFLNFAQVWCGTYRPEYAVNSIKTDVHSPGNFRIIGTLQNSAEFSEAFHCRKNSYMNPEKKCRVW

Compound	IC50 (NEP enzyme) [nM]	Ki (human AT1 receptor) [nM]
CCCc1cc(C(=O)N[C@@H](CC(=O)O)Cc2ccccc2F)nn1Cc1ccc(-c2ccccc2-c2nnn[nH]2)nc1 [Example 12, (R)-4-(2-Fluorophenyl)-3-[(5-propyl-1-{6-[2-(1H-tetrazol-5-yl)phenyl]pyridin-3-ylmethyl}-1H-pyrazole-3-carbonyl)amino]butyric acid]	≤ 100	≤ 10
CCCc1cc(C(=O)N[C@H](Cc2ccccc2)[C@@H](O)C(=O)O)nn1Cc1ccc(-c2ccccc2S(=O)(=O)NC(=O)C(C)C)cc1 [Example 6-12, (2R,3R)-2-Hydroxy-3-{[1-(2′-isobutyrylsulfamoylbiphenyl-4-ylmethyl)-5-propyl-1H-pyrazole-3-carbonyl]amino}-4-phenylbutyric acid]	≤ 1000	≤ 10
CCCc1cc(C(=O)N[C@@H](CC(=O)NO)Cc2ccccc2)nn1Cc1ccc(-c2ccccc2S(=O)(=O)NC(C)=O)cc1 [Example 6-18, 1-(2′-Acetylsulfamoylbiphenyl-4-ylmethyl)-5-propyl-1H-pyrazole-3-carboxylic acid ((R)-1-benzyl-2-hydroxycarbamoylethyl)amide]	≤ 100	≤ 10
CCCc1cc(C(=O)N[C@@H](CS)Cc2ccccc2)nn1Cc1ccc(-c2ccccc2-c2nnn[nH]2)c(F)c1 [Example 3-11, 1-((2-Fluoro-2′-(1H-tetrazol-5-yl)biphenyl-4-yl)methyl)-N-((R)-1-mercapto-3-phenylpropan-2-yl)-5-propyl-1H-pyrazole-3-carboxamide]	≤ 100	≤ 10
CCCc1cc(C(=O)N[C@@H](CC(=O)OC)Cc2ccccc2C)nn1Cc1ccc(-c2ccccc2-c2nnn[nH]2)cc1 [Example 3-29, (R)-3-({5-Propyl-1-[2′-(1H-tetrazol-5-yl)-biphenyl-4-ylmethyl]-1H-pyrazole-3-carbonyl}amino)-4-o-tolyl-butyric acid methyl ester]	≤ 10000	≤ 10
CCCc1cc(C(=O)N[C@H](Cc2ccccc2)[C@@H](O)C(=O)O)nn1Cc1ccc(-c2ccccc2S(=O)(=O)NC(C)=O)cc1 [Example 4, (2R,3R)-3-(1-((2′-(N-Acetylsulfamoyl)biphenyl-4-yl)methyl)-5-propyl-1H-pyrazole-3-carboxamido)-2-hydroxy-4-phenylbutanoic Acid]	≤ 100	≤ 10
CCCc1cc(C(=O)N[C@H](Cc2ccccc2)[C@@H](O)C(=O)O)nn1Cc1ccc(-c2ccccc2-c2nnn[nH]2)cc1 [Example 1, (2R,3R)-3-(1-((2′-(1H-tetrazol-5-yl)biphenyl-4-yl)methyl)-5-propyl-1H-pyrazole-3-carboxamido)-2-hydroxy-4-phenylbutanoic Acid]	≤ 1000	≤ 10
CCCc1cc(C(=O)N[C@@H](CC(=O)O)Cc2ccco2)nn1Cc1ccc(-c2ccccc2-c2nnn[nH]2)nc1 [Example 14-11, (R)-4-Furan-2-yl-3-[(5-propyl-1-{6-[2-(1H-tetrazol-5-yl)phenyl]pyridin-3-ylmethyl}-1H-pyrazole-3-carbonyl)amino]butyric acid]	≤ 1000	≤ 10
CCCc1cc(C(=O)N[C@H](Cc2ccccc2)[C@@H](O)C(=O)O)nn1Cc1ccc(-c2ccccc2C(=O)O)cc1 [Example 9-5, 4′-[3-((1R,2R)-1-Benzyl-2-carboxy-2-hydroxyethylcarbamoyl)-5-propylpyrazol-1-ylmethyl]biphenyl-2-carboxylic acid]	≤ 100	≤ 100
CCCc1cc(C(=O)N[C@H](Cc2ccccc2)[C@@H](O)C(=O)O)nn1Cc1ccc(-c2ccccc2S(=O)(=O)NC(=O)[C@@H](C)O)cc1 [Example 7-16, (2R,3R)-2-Hydroxy-3-({1-[2′-((R)-2-hydroxypropionylsulfamoyl)biphenyl-4-ylmethyl]-5-propyl-1H-pyrazole-3-carbonyl}amino)-4-phenylbutyric acid]	≤ 100	≤ 10
CCCc1cc(C(=O)N[C@@H](CC(=O)NO)Cc2ccccc2Cl)nn1Cc1ccc(-c2ccccc2-c2nnn[nH]2)cc1 [Example 3-15, 5-Propyl-1-[2′-(1H-tetrazol-5-yl)-biphenyl-4-ylmethyl]-1H-pyrazole-3-carboxylic acid [(R)-2-(2-chlorophenyl)-1-hydroxycarbamoylmethylethyl]amide]	≤ 100	≤ 10
CCCc1cc(C(=O)N[C@H](Cc2ccccc2)[C@@H](O)C(=O)O)nn1Cc1ccc(-c2ccccc2-c2nnn[nH]2)nc1 [Example 14-1, (2R,3R)-2-Hydroxy-4-phenyl-3-[(5-propyl-1-{6-[2-(1H-tetrazol-5-yl)-phenyl]pyridin-3-ylmethyl}-1H-pyrazole-3-carbonyl)amino]butyric acid]	≤ 100	≤ 10
CCCc1cc(C(=O)N[C@@H](CC(=O)O)Cc2ccccc2Cl)nn1Cc1ccc(-c2ccccc2-c2nnn[nH]2)c(F)c1 [Example 3-18, (R)-4-(2-Chlorophenyl)-3-({1-[2-fluoro-2′-(1H-tetrazol-5-yl)biphenyl-4-ylmethyl]-5-propyl-1H-pyrazole-3-carbonyl}amino)butyric acid]	≤ 1000	≤ 10
CCCc1cc(C(=O)N[C@H](Cc2ccccc2)[C@@H](O)C(=O)O)nn1Cc1ccc(-c2ccccc2S(=O)(=O)NC(C)=O)c(F)c1 [Example 6-7, (2R,3R)-3-{[1-(2′-Acetylsulfamoyl-2-fluorobiphenyl-4-ylmethyl)-5-propyl-1H-pyrazole-3-carbonyl]amino}-2-hydroxy-4-phenylbutyric acid]	≤ 100	≤ 10
CCCc1cc(C(=O)N[C@@H](CC(=O)O)Cc2ccccc2C(F)(F)F)nn1Cc1ccc(-c2ccccc2-c2nnn[nH]2)cc1F [Example 3-21, (R)-3-(1-((3-fluoro-2′-(1H-tetrazol-5-yl)biphenyl-4-yl)methyl)-5-propyl-1H-pyrazole-3-carboxamido)-4-(2-(trifluoromethyl)phenyl)butanoic acid]	≤ 1000	≤ 100
CCCc1cc(C(=O)N[C@@H](CC(=O)O)Cc2ccccc2Cl)nn1Cc1ccc(-c2ccccc2S(=O)(=O)NC(C)=O)cn1 [Example 15-4, (R)-3-({1-[5-(2-Acetylsulfamoylphenyl)pyridin-2-ylmethyl]-5-propyl-1H-pyrazole-3-carbonyl}amino)-4-(2-chlorophenyl)butyric acid]	≤ 1000	≤ 100
CCCc1cc(C(=O)N[C@@H](CC(=O)NO)Cc2ccccc2)nn1Cc1c(F)cc(-c2ccccc2S(=O)(=O)NC(C)=O)cc1F [Example 6-20, 1-(2′-Acetylsulfamoyl-3,5-difluorobiphenyl-4-ylmethyl)-5-propyl-1H-pyrazole-3-carboxylic acid ((R)-1-hydroxycarbamoylmethyl-2-phenylethyl)amide]	≤ 100	≤ 10
CCOc1cc(C(=O)N[C@@H](CS)Cc2ccccc2)nn1Cc1ccc(-c2ccccc2-c2nnn[nH]2)cc1F [Example 3-1, 5-Ethoxy-1-[3-fluoro-2′-(1H-tetrazol-5-yl)biphenyl-4-ylmethyl]-1H-pyrazole-3-carboxylic acid ((R)-1-benzyl-2-mercaptoethyl)amide]	≤ 100	≤ 10
CCCc1cc(C(=O)N[C@H](Cc2ccccc2)CN(O)C=O)nn1Cc1ccc(-c2ccccc2S(=O)(=O)NC(C)=O)cc1 [Example 6-13, 1-(2′-Acetylsulfamoyl-biphenyl-4-ylmethyl)-5-propyl-1H-pyrazole-3-carboxylic acid [(R)-1-benzyl-2-(formyl-hydroxy-amino)-ethyl]amide]	≤ 100	≤ 10
